Data: patent publication US11253516B2, “N2,N4-diphenylpyrimidine-2,4-diamine derivative, method for preparing same, and pharmaceutical composition containing same as active ingredient for prevention or treatment of cancer” (Korea Research Institute of Chemical Technology, priority 2017, dated 2022)
pIC50: −log10 of the molar value.

Columns and labels:
EGFR del19/T790M = EGFR del19/T790M (Homo sapiens (Human), UniProt P00533, DEL746-750/T790M); experiment: HTRF enzyme assay, EGFR del19/T790M; type: biochemical; details: recombinant enzyme
Chain of EGFR del19/T790M (P00533 other isoform, or with tags, fused parts or gaps T790M/del 1-668/del 746-750 limits assumed): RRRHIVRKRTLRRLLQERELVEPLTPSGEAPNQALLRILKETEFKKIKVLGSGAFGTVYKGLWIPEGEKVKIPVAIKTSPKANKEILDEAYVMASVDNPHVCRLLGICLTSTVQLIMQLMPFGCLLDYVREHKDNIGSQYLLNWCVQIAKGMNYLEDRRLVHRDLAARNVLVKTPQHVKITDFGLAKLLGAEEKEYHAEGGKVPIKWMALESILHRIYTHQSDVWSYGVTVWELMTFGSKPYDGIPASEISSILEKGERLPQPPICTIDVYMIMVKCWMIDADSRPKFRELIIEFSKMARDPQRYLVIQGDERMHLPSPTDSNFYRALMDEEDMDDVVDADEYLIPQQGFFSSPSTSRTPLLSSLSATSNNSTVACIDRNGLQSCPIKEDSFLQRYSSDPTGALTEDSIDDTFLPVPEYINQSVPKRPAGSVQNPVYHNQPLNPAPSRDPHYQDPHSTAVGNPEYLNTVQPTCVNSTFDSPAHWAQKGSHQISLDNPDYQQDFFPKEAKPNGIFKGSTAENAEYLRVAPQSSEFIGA
Method: (§1) The measurement of an activity on wild-type and EGFR mutation enzyme of the compound of the present invention was experimented by utilizing the HTRF system sold by Cisbio, as follow.
(§2) The composition of the assay buffer used in the activity measurement was 50 mM Tris-HCl pH 7.5, 100 mM NaCl, 7.5 mM MgCl2, 3 mM KCl, 0.01% Tween 20, 0.1% BSA, 1 mM DTT. The enzymatic reaction was carried out hereto by using the peptide substrate labeled with ATP of […] concentration and biotin of […] concentration. The analysis of an EGFR activity inhibitory effect of the compound was carried out in accordance with the analysis reaction recipe below.
(§3) Component 1: […] of EGFR wild-type or mutation enzyme
(§4) Component 2: […] of compound solution
(§5) Component 3: […] of peptide labeled with ATP and biotin
(§6) The enzymatic reaction was initiated by mixing Component 1 and Component 2 first, and then, adding component 3. After the reaction for 2 hours at 37° C., […] of a measurement solution consisting of streptavidin-XL665 provided by Cisbio and anti-phosphotyrosine antibody labeled with europium was added to the enzymatic reaction solution and reacted for 1 hour at ambient temperature. […] The measurement values measured at the seven concentrations of the compound were analyzed by using the Prism program (version 5.01, Graphpad Software, Inc.), and IC50 value of the compound was calculated, which is an inhibitory ability indicator.

EGFR del19/T790M/C797S = EGFR del19/T790M/C797S (Homo sapiens, UniProt P00533, C797S/DEL746-750/T790M); experiment: HTRF enzyme assay, EGFR del19/T790M/C797S; type: biochemical; details: HTRF, recombinant enzyme; read-out: EGFR del19/T790M/C797S IC50
Chain of EGFR del19/T790M/C797S (P00533 with tags, fused parts or gaps C797S/DEL746-750/T790M limits assumed): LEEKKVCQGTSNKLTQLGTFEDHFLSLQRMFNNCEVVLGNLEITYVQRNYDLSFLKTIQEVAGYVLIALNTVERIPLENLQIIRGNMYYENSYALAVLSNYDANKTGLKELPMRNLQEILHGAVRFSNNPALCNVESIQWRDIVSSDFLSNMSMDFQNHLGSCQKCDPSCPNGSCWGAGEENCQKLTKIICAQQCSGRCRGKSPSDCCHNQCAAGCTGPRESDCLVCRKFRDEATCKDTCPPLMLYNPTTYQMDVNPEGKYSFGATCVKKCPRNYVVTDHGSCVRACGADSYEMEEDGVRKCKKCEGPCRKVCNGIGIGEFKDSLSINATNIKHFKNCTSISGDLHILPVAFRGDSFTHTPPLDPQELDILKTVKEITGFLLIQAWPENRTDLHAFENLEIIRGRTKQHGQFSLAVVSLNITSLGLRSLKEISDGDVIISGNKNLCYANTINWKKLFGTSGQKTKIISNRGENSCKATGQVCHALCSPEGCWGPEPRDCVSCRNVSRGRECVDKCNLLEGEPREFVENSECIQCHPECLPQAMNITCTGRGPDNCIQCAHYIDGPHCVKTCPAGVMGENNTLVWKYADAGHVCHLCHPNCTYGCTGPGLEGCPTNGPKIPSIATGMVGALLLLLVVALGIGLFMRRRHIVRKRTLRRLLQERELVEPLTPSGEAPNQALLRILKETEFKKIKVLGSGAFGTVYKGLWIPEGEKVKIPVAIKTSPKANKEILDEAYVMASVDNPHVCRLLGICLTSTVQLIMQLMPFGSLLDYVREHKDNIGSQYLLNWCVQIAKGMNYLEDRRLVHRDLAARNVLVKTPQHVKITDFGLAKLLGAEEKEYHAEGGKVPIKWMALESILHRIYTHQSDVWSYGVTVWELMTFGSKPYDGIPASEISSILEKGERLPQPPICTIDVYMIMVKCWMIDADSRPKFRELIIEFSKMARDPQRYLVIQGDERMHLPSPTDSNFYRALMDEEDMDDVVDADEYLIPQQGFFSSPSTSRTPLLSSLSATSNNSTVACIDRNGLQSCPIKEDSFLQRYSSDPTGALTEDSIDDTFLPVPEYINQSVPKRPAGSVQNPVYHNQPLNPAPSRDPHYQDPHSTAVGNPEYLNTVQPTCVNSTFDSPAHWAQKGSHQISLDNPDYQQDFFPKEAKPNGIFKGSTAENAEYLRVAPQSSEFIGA
Method: as §1, §2, §3, §4, §5, §6

EGFR del19 = EGFR del19 (Homo sapiens (Human), UniProt P00533, DEL746-750); experiment: HTRF enzyme assay, EGFR del19; type: biochemical; details: recombinant enzyme
Chain of EGFR del19 (P00533 other isoform, or with tags, fused parts or gaps del 1-668/del 746-750 limits assumed): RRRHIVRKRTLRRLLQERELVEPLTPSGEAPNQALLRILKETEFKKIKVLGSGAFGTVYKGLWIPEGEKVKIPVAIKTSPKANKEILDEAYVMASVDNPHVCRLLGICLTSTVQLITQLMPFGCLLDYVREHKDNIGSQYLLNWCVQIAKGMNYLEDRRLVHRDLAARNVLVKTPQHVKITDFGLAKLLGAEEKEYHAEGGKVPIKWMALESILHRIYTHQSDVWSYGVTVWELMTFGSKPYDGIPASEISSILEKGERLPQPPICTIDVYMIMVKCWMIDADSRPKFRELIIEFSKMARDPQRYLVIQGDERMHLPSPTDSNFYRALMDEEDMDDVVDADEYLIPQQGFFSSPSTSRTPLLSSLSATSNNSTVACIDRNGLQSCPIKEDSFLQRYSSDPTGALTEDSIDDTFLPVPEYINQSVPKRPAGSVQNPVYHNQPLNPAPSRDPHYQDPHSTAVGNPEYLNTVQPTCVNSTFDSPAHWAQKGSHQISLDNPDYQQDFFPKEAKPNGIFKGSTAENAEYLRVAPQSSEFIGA
Method: as §1, §2, §3, §4, §5, §6

EGFR wt. = EGFR wt. (Homo sapiens (Human), UniProt P00533); experiment: HTRF enzyme assay, wild-type EGFR; type: biochemical; details: recombinant enzyme
Chain of EGFR wt. (P00533 25-1210): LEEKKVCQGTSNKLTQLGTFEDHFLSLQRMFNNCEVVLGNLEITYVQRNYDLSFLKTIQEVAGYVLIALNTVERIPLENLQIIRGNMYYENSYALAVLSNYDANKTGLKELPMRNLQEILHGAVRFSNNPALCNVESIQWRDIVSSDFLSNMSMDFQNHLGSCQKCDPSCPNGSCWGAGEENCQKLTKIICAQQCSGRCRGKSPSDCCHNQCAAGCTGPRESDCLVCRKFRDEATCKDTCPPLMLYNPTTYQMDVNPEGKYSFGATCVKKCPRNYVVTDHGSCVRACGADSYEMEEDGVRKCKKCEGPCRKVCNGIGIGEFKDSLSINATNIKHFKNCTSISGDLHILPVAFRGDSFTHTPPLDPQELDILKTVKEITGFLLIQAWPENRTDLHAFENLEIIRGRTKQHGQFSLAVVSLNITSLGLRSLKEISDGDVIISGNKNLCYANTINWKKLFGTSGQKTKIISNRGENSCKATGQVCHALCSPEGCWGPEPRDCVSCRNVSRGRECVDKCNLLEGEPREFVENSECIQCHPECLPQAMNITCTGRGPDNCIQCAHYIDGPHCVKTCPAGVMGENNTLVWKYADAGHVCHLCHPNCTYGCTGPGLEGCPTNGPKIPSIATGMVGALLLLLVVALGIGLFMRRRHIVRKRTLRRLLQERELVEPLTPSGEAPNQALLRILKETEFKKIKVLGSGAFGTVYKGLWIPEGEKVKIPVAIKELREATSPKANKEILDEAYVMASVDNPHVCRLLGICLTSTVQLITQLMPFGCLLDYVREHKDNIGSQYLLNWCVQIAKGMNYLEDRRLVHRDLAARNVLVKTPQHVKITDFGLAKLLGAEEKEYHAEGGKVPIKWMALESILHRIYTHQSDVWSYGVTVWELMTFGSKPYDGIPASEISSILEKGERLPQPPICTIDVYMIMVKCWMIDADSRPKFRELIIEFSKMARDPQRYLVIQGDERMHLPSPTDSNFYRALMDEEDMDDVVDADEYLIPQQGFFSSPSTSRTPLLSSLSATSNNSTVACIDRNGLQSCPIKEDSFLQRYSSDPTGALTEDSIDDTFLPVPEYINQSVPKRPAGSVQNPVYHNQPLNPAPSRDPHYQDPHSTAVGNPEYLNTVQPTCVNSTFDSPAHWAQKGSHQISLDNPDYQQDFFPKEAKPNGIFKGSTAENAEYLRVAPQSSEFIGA
Method: as §1, §2, §3, §4, §5, §6

[1] = system: Ba/F3 EGFR del19/T790M cell line; experiment: CellTiter-Glo cell viability, Ba/F3 EGFR del19/T790M; type: cell-based; details: CellTiter-Glo, 72 hours, read-out: Ba/F3 EGFR del19/T790M IC50
Method: (§7) The measurement of an activity on wild-type and mutation Ba/F3 EGFR cell line of the compound of the present invention was experimented by utilizing the CellTiter-Glo system sold by Promega, as follow. The CellTiter-Glo assay is a method for measuring the ATP present in cells in cell culture conditions to determine the cell viability.
(§8) The analysis of an EGFR inhibitory ability effect of the compound was carried out in accordance with the analysis reaction recipe below.
(§9) After the reaction of 72 hours, the plate treated with the compound was allowed to stand for 30 minutes at ambient temperature, and then, was further treated with 100 μl of the reagent, and was shaked for 10 minutes at ambient temperature.

Ba/F3 EGFR wt. cell line = experiment: CellTiter-Glo cell viability, Ba/F3 EGFR wild-type; type: cell-based; details: 72 hours
Method: as §7, §8
(§10) After the reaction of 72 hours, the plate treated with the compound was allowed to stand for 30 minutes at ambient temperature, and then, was further treated with 100 μl of the reagent, and was shaked for 10 minutes at ambient temperature. […] The measurement values measured at the eight concentrations of the compound were analyzed by using the Prism program (version 5.01, Graphpad Software, Inc.), and IC50 value of the compound was calculated, which is an inhibitory ability indicator.

[2] = system: Ba/F3 EGFR del19/T790M/C797S cell line; experiment: CellTiter-Glo cell viability, Ba/F3 EGFR del19/T790M/C797S; type: cell-based; details: CellTiter-Glo, 72 hours, read-out: Ba/F3 EGFR del19/T790M/C797S IC50
Method: as §7, §8, §9

[3] = system: Ba/F3 EGFR del19 cell line; experiment: CellTiter-Glo cell viability, Ba/F3 EGFR del19; type: cell-based; details: 72 hours
Method: as §7, §8, §10

Row | pIC50 (EGFR del19/T790M) | pIC50 (EGFR del19/T790M/C797S) | pIC50 (EGFR del19) | pIC50 (EGFR wt.) | pIC50 [1] | pIC50 (Ba/F3 EGFR wt. cell line) | pIC50 [2] | pIC50 [3] | SMILES
1 | 7.47 | 8.52 | 7.62 | 5.74 | 6.07 | 5.27 | 5.57 | 6.17 | COc1cc(N2CCNCC2)ccc1Nc1ncc(Br)c(Nc2ccccc2NS(N)(=O)=O)n1 [Example 30, 4-(4-((5-bromo-4-((2-(sulfamoylamino)phenyl)amino)pyrimidin-2-yl)amino)-3-methoxyphenyl)piperazine]
2 | 7.74 | 8.05 | 9.70 | 6.52 | 6.11 | 6.47 | 7.57 | 6.68 | COc1cc(N2CCN(C3CCN(C)CC3)CC2)ccc1Nc1ncc(Cl)c(Nc2ccccc2NS(C)(=O)=O)n1 [Example 25, N-(2-((5-chloro-2-((2-methoxy-4-(4-(1-methylpiperidin-4-yl)piperazin-1-yl)phenyl)amino)pyrimidin-4-yl)amino)phenyl)methanesulfonamide]
3 | 7.57 | 8.05 | 9.05 | 6.19 | 6.16 | 5.85 | 5.77 | 5.85 | COc1cc(N2CCN(C)CC2)ccc1Nc1ncc(Cl)c(Nc2ccccc2NS(C)(=O)=O)n1 [Example 28, N-(2-((5-chloro-2-((2-methoxy-4-(4-methylpiperazin-1-yl)phenyl)amino)pyrimidin-4-yl)amino)phenyl)methanesulfonamide]
4 | 6.80 | 7.85 | 8.40 | 5.89 | 5.89 | 5.10 | 5.48 | 5.72 | COc1cc(N2CCOCC2)ccc1Nc1ncc(Cl)c(Nc2ccccc2NS(C)(=O)=O)n1 [Example 32, N-(2-((5-chloro-2-((2-methoxy-4-morpholinophenyl)amino)pyrimidin-4-yl)amino)phenyl)methanesulfonamide]

The remaining lines, values behind:

Row | SMILES | pIC50 (EGFR del19/T790M) | pIC50 (EGFR del19/T790M/C797S) | pIC50 (EGFR del19) | pIC50 (EGFR wt.) | pIC50 [1] | pIC50 (Ba/F3 EGFR wt. cell line) | pIC50 [2] | pIC50 [3]
5 | COc1cc(C2CCN(C)CC2)ccc1Nc1ncc(Cl)c(Nc2ccccc2NS(C)(=O)=O)n1 [Example 12, N-(2-((5-chloro-2-((2-methoxy-4-(1-methylpiperidin-4-yl)phenyl)amino)pyrimidin-4-yl)amino)phenyl)methanesulfonamide] | 6.89 | 8.70 | 7.66 | 5.92 | 6.42 | 6.49 | 7.10 | 6.48
6 | COc1cc(C2CCN(C3CCNCC3)CC2)ccc1Nc1ncc(Cl)c(Nc2ccccc2NS(C)(=O)=O)n1 [Example 16, N-(2-((2-((4-([1,4′-bipiperidin]-4-yl)-2-methoxyphenyl)amino)-5-chloropyrimidin-4-yl)amino)phenyl)methanesulfonamide] | 6.47 | 7.64 | 7.36 | 5.27 | 5.64 | < 5.00 | < 5.00 | < 5.00
7 | COc1cc(C2CCNCC2)ccc1Nc1ncc(C(F)(F)F)c(Nc2ccccc2NS(C)(=O)=O)n1 [Example 5, N-(2-((2-((2-methoxy-4-(piperidin-4-yl)phenyl)amino)-5-(trifluoromethyl)pyrimidin-4-yl)amino)phenyl)methanesulfonamide] | 7.89 | 7.85 | 7.48 | 5.37 | 6.24 | 5.62 | 6.10 | 6.59
8 | COc1cc(C2CCNCC2)c(C)cc1Nc1ncc(Cl)c(Nc2ccccc2NS(C)(=O)=O)n1 [Example 2, N-(2-((5-chloro-2-((2-methoxy-5-methyl-4-(piperidin-4-yl)phenyl)amino)pyrimidin-4-yl)amino)phenyl)methanesulfonamide] | 7.92 | 8.52 | 7.92 | 6.14 | 5.74 | 5.55 | 5.62 | 5.42
9 | COc1cc(N2CCC(N3CCNCC3)CC2)ccc1Nc1ncc(Cl)c(Nc2ccccc2NS(C)(=O)=O)n1 [Example 21, N-(2-((5-chloro-2-((2-methoxy-4-(4-(piperazin-1-yl)piperidin-1-yl)phenyl)amino)pyrimidin-4-yl)amino)phenyl)methanesulfonamide] | 7.85 | 8.30 | 10.00 | 6.80 | 6.26 | 5.66 | 5.77 | 5.44
10 | COc1cc(N2CCC(N3CCN(C(C)=O)CC3)CC2)ccc1Nc1ncc(Cl)c(Nc2ccccc2NS(C)(=O)=O)n1 [Example 19, N-(2-((2-((4-(4-(4-acetylpiperazin-1-yl)piperidin-1-yl)-2-methoxyphenyl)amino)-5-chloropyrimidin-4-yl)amino)phenyl)methanesulfonamide] | 7.16 | 7.38 | 9.15 | 6.15 | 6.18 | 5.51 | 6.01 | 5.96
11 | COc1cc(C2CCN(C3CCN(C)CC3)CC2)ccc1Nc1ncc(Cl)c(Nc2ccccc2NS(C)(=O)=O)n1 [Example 17, N-(2-((5-chloro-2-((2-methoxy-4-(1′-methyl-[1,4′-bipiperidin]-4-yl)phenyl)amino)pyrimidin-4-yl)amino)phenyl)methanesulfonamide] | 7.11 | 7.92 | 8.40 | 6.22 | 5.77 | 5.68 | 6.17 | 5.66
